The text below walks through data of patent publication US9309263B2, “Fused multi-cyclic sulfone compounds as inhibitors of beta-secretase and methods of use thereof” (AMGEN INC., priority 2013, dated 2016).

For data set [1], the target named is Beta Secretase enzyme (BACE) (Homo sapiens, UniProt P56817). In words: In vitro enzymatic BACE FRET assay. The data set is classed as biochemical. As to conditions: average IC50, in vitro enzymatic BACE FRET assay; read-out: BACE1 FRET assay IC50. In outline: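 Cleavage of a quenched 50 nM FRET peptide substrate, read as fluorescence (excitation 488 nm, […]) after 1 h and Tris quench to neutrality. Buffer: 0.05 M acetate pH 4.2 with 10% DMSO and 100 uM genapol. Inhibitor dilutions were pre-incubated 1 h with 0.2 nM enzyme.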
Beta Secretase enzyme (BACE), sequence (P56817 46-501): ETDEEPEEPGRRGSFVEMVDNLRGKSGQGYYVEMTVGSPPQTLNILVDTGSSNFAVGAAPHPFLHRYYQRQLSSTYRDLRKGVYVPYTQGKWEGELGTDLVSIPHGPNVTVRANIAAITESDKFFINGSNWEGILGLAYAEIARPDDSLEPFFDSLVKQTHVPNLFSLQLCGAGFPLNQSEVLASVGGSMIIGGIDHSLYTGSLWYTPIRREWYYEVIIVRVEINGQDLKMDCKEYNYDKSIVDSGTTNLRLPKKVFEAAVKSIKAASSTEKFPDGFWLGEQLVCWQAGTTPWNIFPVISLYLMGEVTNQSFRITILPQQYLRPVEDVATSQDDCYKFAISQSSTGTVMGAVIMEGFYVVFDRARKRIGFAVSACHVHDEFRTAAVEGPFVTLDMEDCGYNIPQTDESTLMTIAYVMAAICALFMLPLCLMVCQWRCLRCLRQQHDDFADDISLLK

In data set [2] the test system is Aβ 40 in conditioned medium of cells stably expressing Amyloid Precursor Protein (APP). In words: In vitro BACE cell-based assay (Aβ 40 sandwich ELISA). As to conditions: Homo sapiens, HEK293; average IC50, HEK cell assay, Aβ 40 readout. An outline of the steps:
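Aβ40 in conditioned medium measured by pAb40/biotin-6E10 sandwich ELISA with time-resolved europium fluorescence, after 24 h exposure of stable APP cells to compounds (10-point series starting 100 μM or 10 μM; 0.1% DMSO). IC50 fitted from percent of control against concentration.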

Another data set addresses Cathepsin D (Cat D) (Homo sapiens, UniProt P07339). As to the kind of experiment: In vitro enzymatic Cathepsin D (Cat D) FRET assay. The data set is classed as biochemical. The following applies: Cathepsin D FRET assay; read-out: CatD IC50. In outline:
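FRET peptide substrate (20 nM) is cleaved by CHO-derived recombinant enzyme (9 nM) for 1 h after a 1 h inhibitor pre-incubation, at pH 3.5 in citrate buffer with 5 mM CHAPS and 10% DMSO. Tris addition ends the reaction; fluorescence measured at 500 nm excitation, 580 nm emission.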

In a further data set the test system is Abeta 40. In words: In vivo inhibition of beta-secretase: Abeta 40 reduction in CSF and brain of the rat. The following applies: 10 mpk (unless otherwise noted), after 4 hrs. From the text:
In Vivo Inhibition of Beta-Secretase
Several animal models, including mouse, rat, dog, and monkey, may be used to screen for inhibition of beta-secretase activity in vivo following administration of a test compound sample. Animals used in this invention can be wild type, transgenic, or gene knockout animals. For example, the Tg2576 mouse model, prepared and conducted as described in Hsiao et al., 1996, Science 274, 99-102, and other non-transgenic or gene knockout animals are useful to analyze in vivo inhibition of Amyloid beta peptide (Abeta) production in the presence of inhibitory test compounds. Generally, 2 to 18 month old Tg2576 mice, gene knockout mice or non-transgenic animals are administered test compounds formulated in vehicles, such as cyclodextran, phosphate buffers, hydroxypropyl methylcellulose or other suitable vehicles. One to twenty-four hours following the administration of compound, animals are sacrificed, and brains as well as cerebrospinal fluid (CSF) and plasma are removed for analysis of A-beta levels and drug or test compound concentrations (Dovey et al., 2001, Journal of Neurochemistry, 76, 173-181) Beginning at time 0, animals are administered by oral gavage, or other means of delivery such as intravenous injection, an inhibitory test compound of up to 100 mg/kg in a standard, conventional formulation, such as 2% hydroxypropyl methylcellulose, 1% Tween80. A separate group of animals receive 2% hydroxypropyl methylcellulose, 1% Tween80 alone, containing no test compound, and serve as a vehicle-control group. At the end of the test period, animals are sacrificed and brain tissues, plasma or cerebrospinal fluid are collected. Brains are either homogenized in 10 volumes (w/v) of 0.2% diethylamine (DEA) in 50 mM NaCl (Best et al., 2005, Journal of Pharmacology and Experimental Therapeutics, 313, 902-908), or in 10 volumes of 0.5% TritonX-100 in Tris-buffered saline (pH at about 7.6). Homogenates are centrifuged at 355,000 g, 4° C. for 30 minutes. CSF or brain supernatants are then analyzed for the presence of A-beta peptide by specific sandwich ELISA assays based on ECL (Electrochemiluminescence) technology. For example, rat Abeta40 is measured using biotinylated-4G8 (Signet) as a capture antibody and Fab40 (an in-house antibody specific to the C-terminal of Abeta40) as a detection antibody. For example, 4 hours after administration of 30 mg/kg oral dose of the test compound in 2% hydroxypropyl methylcellulose, 1% Tween80 (pH2.2) to 200 g male Sprague Dawley rats, amyloid beta peptide levels are measured for reduction by X % and Y % in cerebrospinal fluid and brain, respectively, when compared to the levels measured in the vehicle-treated or control […].
Actual vehicles used: Oral: 2% HPMC, 1% Tween80, pH 2.2
• IV: 5% EtOH, 45% Propylene Glycol in 5% Dextrose
The compounds of the invention may be shown to reduce the formation and/or deposition of amyloid beta peptide in the cerebrospinal fluid (CSF) as well as in the brain of a mouse or rat at either 3 mpk, 10 mpk or 30 mpk (mpk=mg compound per kg weight of the animal) dosing concentrations after 4 hrs.

The test system of data set [3] is pigment epithelium of the rat's eye. The following applies: higher compound dose given for three months; cited from earlier work.
Where [4] appears, read: Abeta 40 in CSF of the rat, read-out: % reduction of rat CSF levels at 10 pmk.
Where [5] appears, read: Abeta 40 in brain of the rat, read-out: % reduction of rat brain levels at 10 mpk.

As usually defined, the pIC50 is the negative decadic logarithm of the IC50, by convention in mol/L.

pIC50: −log10 of the molar value. Where two headings read alike, the source gives them in different places.

Cathepsin D (Cat D), sequence (P07339 65-412, species assumed): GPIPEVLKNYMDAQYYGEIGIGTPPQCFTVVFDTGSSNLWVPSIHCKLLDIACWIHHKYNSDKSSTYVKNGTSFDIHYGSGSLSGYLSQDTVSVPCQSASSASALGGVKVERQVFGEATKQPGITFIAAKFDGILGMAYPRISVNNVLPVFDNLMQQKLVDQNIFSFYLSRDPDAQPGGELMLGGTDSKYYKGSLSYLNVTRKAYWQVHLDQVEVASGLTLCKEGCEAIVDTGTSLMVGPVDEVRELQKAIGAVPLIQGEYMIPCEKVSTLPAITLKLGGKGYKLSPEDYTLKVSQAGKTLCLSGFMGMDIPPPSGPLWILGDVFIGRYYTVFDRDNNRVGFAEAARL

With `C[C@H]1C[C@@H]2[C@](C)(N=C(N)C(C)(C)S2(=O)=O)c2cc(Nc3nccc4nc(OCc5ncco5)cnc34)ccc2O1` [Example 138, (4aR,6S,11bR)-3,3,6,11b-tetramethyl-N^~10^~-(2-(1,3-oxazol-2-ylmethoxy)pyrido[3,4-b]pyrazin-5-yl)-4a,5,6,11b-tetrahydro-3H-[1]benzoxepino[4,5-b][1,4]thiazine-2,10-diamine 4,4-dioxide], the figures for the pIC50 (in data set [1]; in data set [2]; at Cathepsin D (Cat D)) were 8.40, 9.00 and 3.76, respectively. The inhibition in vivo at 10 mg/kg came out at 46% in the data set on Abeta 40 (setting [4]) and 38% in the data set with Abeta 40 (setting [5]).

On to `C#CCOc1cnc2c(Nc3ccc4c(c3)[C@@]3(C)N=C(N)C(C)(C)S(=O)(=O)[C@@H]3C[C@H](C)O4)nccc2n1` [Example 140, (4aR,6S,11bR)-3,3,6,11b-tetramethyl-N^~10^~-(2-(2-propyn-1-yloxy)pyrido[3,4-b]pyrazin-5-yl)-4a,5,6,11b-tetrahydro-3H-[1]benzoxepino[4,5-b][1,4]thiazine-2,10-diamine 4,4-dioxide], for which the pIC50 in data set [1] was 8.70; in data set [2], 8.70; at Cathepsin D (Cat D) it was 3.21. For the same compound, the inhibition in vivo at 10 mg/kg with Abeta 40 (setting [4]) is 71%; in the data set with Abeta 40 (setting [5]) it was 72%.

In the case of `C[C@@]1(c2cc(-c3cncnc3)c(F)cc2F)CCSC(N)=N1` [LY 2811376], the “toxicology finding in the eye” value in data set [3] is “damaged the pigment epithelium of the rat's eye”.
